Where two headings read alike, the source gives them in different places.
How the values were obtained:
[1] = target: T1, CDK2/cyclin A2 (Homo sapiens, UniProt P24941); test: Human CDK2/cyclin A2 inhibitory activity (QS S Assist CDK2/Cyclin A2_FP Kit, IMAP fluorescence polarization); assay type: biochemical
T1 construct: purchased Carna Biosciences, Inc. QS S Assist CDK2/Cyclin A2_FP Kit
Procedure, shortened: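 Kinase activity read as fluorescence polarization (485/535 nm) after phosphorylated fluorescent substrate binds IMAP reagent (30 min, RT, dark). Enzyme (2.5 ng/well) reacted 60 min at RT with ATP/substrate/metal in HEPES pH 7.4 buffer with Tween 20 and DTT; no-enzyme wells define 0% activity; IC50 by curve fit.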

[2] = target: T2, CDK4/cyclin D3 (Homo sapiens, UniProt P11802); test: Human CDK4/cyclin D3 inhibitory activity (QS S Assist CDK4/Cyclin D3_FP Kit, IMAP fluorescence polarization); assay type: biochemical
T2 construct: purchased Carna Biosciences, Inc. QS S Assist CDK4/Cyclin D3_FP Kit
T2 sequence (P11802 whole entry): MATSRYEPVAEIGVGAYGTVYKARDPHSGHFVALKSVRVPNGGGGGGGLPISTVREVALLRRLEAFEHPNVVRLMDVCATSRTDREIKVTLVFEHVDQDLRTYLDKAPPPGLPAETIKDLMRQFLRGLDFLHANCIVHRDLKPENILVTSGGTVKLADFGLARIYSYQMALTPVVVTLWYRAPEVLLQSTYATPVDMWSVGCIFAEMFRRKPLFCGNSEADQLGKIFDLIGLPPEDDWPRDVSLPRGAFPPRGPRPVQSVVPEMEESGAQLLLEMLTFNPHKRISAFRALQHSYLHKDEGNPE
T2 sequence (P30281 whole entry partner): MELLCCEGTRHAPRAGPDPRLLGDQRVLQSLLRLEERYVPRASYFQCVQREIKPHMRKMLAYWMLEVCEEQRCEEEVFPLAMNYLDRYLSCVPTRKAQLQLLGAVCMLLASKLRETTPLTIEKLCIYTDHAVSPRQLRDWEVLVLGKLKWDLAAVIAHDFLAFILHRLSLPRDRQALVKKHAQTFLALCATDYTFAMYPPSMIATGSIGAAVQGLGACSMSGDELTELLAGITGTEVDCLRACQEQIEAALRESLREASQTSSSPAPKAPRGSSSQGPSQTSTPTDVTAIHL
Procedure, shortened: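 IMAP fluorescence polarization kit: CDK4/cyclin D3 at 12.5-25 ng/well with kit ATP/substrate/metal mix in 20 mM HEPES pH 7.4, 0.01% Tween20, 2 mM DTT, 45 min at room temperature. FP read at 485/535 nm after 30 min binding; IC50 from dose-response fit of percent inhibition versus enzyme and no-enzyme controls.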

[3] = Human CDK2/cyclin A2 inhibitory activity, read-out: CDK2 Activity symbol
[4] = Human CDK4/cyclin D3 inhibitory activity, read-out: CDK4 Activity symbol
[5] = 50% inhibitory concentration against CDK2/cyclin A2, given as class symbol
[6] = 50% inhibitory concentration against CDK4/cyclin D3, given as class symbol

IC50 [1, 3] | IC50 [2, 4] | IC50 [1, 5] | IC50 [2, 6] | SMILES
≥ 100 nM | ≥ 100 nM |  |  | C[C@@H](O)c1cc2cnc(Nc3ccc(N4CCNCC4)nn3)nc2c(NC(C)(C)C(=O)O)n1 [Compound 315]
 |  | ≥ 100 nM | < 10 nM | CCCNc1nc([C@@H](C)O)cc2cnc(Nc3ccc(CN4CCN(C[C@H](C)O)CC4)cn3)nc12 [Compound 1075]
10 to 100 nM | < 10 nM |  |  | CC(C)Nc1nc(C(F)F)cc2cnc(Nc3ccc(N4CCNC(C)(C)C4)cn3)nc12 [Compound 181]
≥ 100 nM | < 10 nM |  |  | CCNc1nc(C(C)O)cc2cnc(Nc3ccc(N4CCNCC4)cn3)nc12 (stereo not drawn) [Compound 23]
≥ 100 nM | < 10 nM |  |  | CO[C@H](C)c1cc2cnc(Nc3ccc(N4CCNCC4=O)cn3)nc2c(NC(C)C)n1 [Compound 207]
≥ 100 nM | < 10 nM |  |  | FC(F)c1cc2cnc(Nc3ccc(N4CCNCC4)cn3)nc2c(NC2CC2)n1 [Compound 18]
 |  | ≥ 100 nM | < 10 nM | CCCCNc1nc([C@@H](C)O)cc2cnc(Nc3ccc(N4CCNCC4=O)cn3)nc12 [Compound 813]
 |  | ≥ 100 nM | < 10 nM | C[C@@H](O)c1cc2cnc(Nc3ccc(CN4CCN(CCO)CC4)cn3)nc2c(NCC2CC2)n1 [Compound 999]
≥ 100 nM | < 10 nM |  |  | CO[C@H](C)c1cc2cnc(Nc3ccc(N4CC[C@H](N)[C@@H](F)C4)cn3)nc2c(NC(C)C)n1 [Compound 467]
 |  | ≥ 100 nM | < 10 nM | CC(C)Nc1nc([C@@H](C)O)cc2cnc(Nc3ccc(CN4CCC[C@@H](O)C4)cn3)nc12 [Compound 1196]
 |  | ≥ 100 nM | < 10 nM | CCNc1nc([C@@H](C)O)cc2cnc(Nc3ccc(N4CCN(C)CC4)nn3)nc12 [Compound 980]
 |  | ≥ 100 nM | < 10 nM | CCCNc1nc([C@@H](C)O)cc2cnc(Nc3ccc4c(n3)CCNC4)nc12 [Compound 944]
10 to 100 nM | < 10 nM |  |  | CC(C)Nc1nc(C(F)F)cc2cnc(Nc3ccc(CN4CCC(C(C)(C)O)CC4)cn3)nc12 [Compound 118]
 |  | 10 to 100 nM | < 10 nM | CC(C)Nc1nc([C@@H](C)O)cc2cnc(Nc3ccc(C(=O)N4CC[C@@H](N(C)C)C4)cn3)nc12 [Compound 1163]
≥ 100 nM | < 10 nM |  |  | CC(C)Nc1nc([C@@H](C)O)cc2cnc(Nc3ccc(N4CCNCC4)nn3)nc12 [Compound 261, (R)-1-(8-(isopropylamino)-2-((6-(piperazin-1-yl)pyridazin-3-yl)amino)pyrido[3,4-d]pyrimidin-6-yl)ethanol]
 |  | ≥ 100 nM | < 10 nM | CC(C)Nc1nc([C@@H](C)O)cc2cnc(Nc3cnc(N4CCNCC4)cn3)nc12 [Compound 789]
 |  | ≥ 100 nM | ≥ 100 nM | CCCNc1nc(C2CCCO2)cc2cnc(Nc3ccc(N4CCNCC4)cn3)nc12 (single isomer, unassigned) [Compound 1025]
≥ 100 nM | ≥ 100 nM |  |  | CC(C)Nc1nc(C(F)F)cc2cnc(Nc3ccc(-c4ccc(O)cc4)cn3)nc12 [Compound 110]
 |  | ≥ 100 nM | < 10 nM | CCNc1nc([C@@H](C)O)cc2cnc(Nc3ccc(CN4CCN(CCO)C[C@H]4C)cn3)nc12 [Compound 982]

IC50 [1, 3] | IC50 [2, 4] | IC50 [1, 5] | IC50 [2, 6] | SMILES
≥ 100 nM | < 10 nM |  |  | C[C@@H](O)c1cc2cnc(Nc3ccc(OCCN(C)C)cn3)nc2c(NC2CCC(C)(C)OC2)n1 (stereo partly drawn) [Compound 600]
 |  | ≥ 100 nM | < 10 nM | CCCNc1nc([C@@H](C)O)cc2cnc(Nc3ccc(CN4CCC(O)CC4)cn3)nc12 [Compound 1022]
 |  | ≥ 100 nM | < 10 nM | CC(C)Nc1nc([C@@H](C)O)cc2cnc(Nc3cnc(CN4CCN(CCO)CC4)cn3)nc12 [Compound 1050]
 |  | ≥ 100 nM | 10 to 100 nM | CC(C)CNc1nc(C(F)F)cc2cnc(Nc3ccc(CN4CCC(C(=O)O)CC4)cn3)nc12 [Compound 1098]
 |  | ≥ 100 nM | < 10 nM | c1cc2c(nc1Nc1ncc3cc(C4CCOC4)nc(N[C@H]4CCCOC4)c3n1)CCNC2 (single isomer, unassigned) [Compound 942]
 |  | ≥ 100 nM | < 10 nM | COC1CCC(Nc2nc([C@@H](C)O)cc3cnc(Nc4ccc(OCCN(C)C)cn4)nc23)CC1 (stereo partly drawn) [Compound 628]
 |  | ≥ 100 nM | < 10 nM | CN(C)CCN1CCc2nc(Nc3ncc4cc(C5(C)COC5)nc(N[C@H]5CC[C@H](O)CC5)c4n3)ccc2C1 [Compound 1182]
 |  | ≥ 100 nM | < 10 nM | CC(C)Nc1nc(C(C)O)cc2cnc(Nc3ccc(OC4CCCC4N(C)C)cn3)nc12 (stereo not drawn) [Compound 742]
10 to 100 nM | < 10 nM |  |  | CC(C)Nc1nc(C(F)F)cc2cnc(Nc3ccc(CCCO)cn3)nc12 [Compound 164]
≥ 100 nM | < 10 nM |  |  | CO[C@H](C)c1cc2cnc(Nc3ccc(N4CCNC[C@H]4C)nn3)nc2c(NC(C)C)n1 [Compound 372]
 |  | ≥ 100 nM | 10 to 100 nM | C[C@@H](O)c1cc2cnc(Nc3ccc(N4CCNCC4=O)cn3)nc2c(NC2CC2)n1 [Compound 1044]
 |  | ≥ 100 nM | < 10 nM | CO[C@H](C)c1cc2cnc(Nc3ccc(C4CCNCC4)cn3)nc2c(N[C@H]2CCCOC2)n1 [Compound 956]
≥ 100 nM | < 10 nM |  |  | CC(O)c1cc2cnc(Nc3ccc(N4CCNCC4)cn3)nc2c(NCC(F)(F)F)n1 (stereo not drawn) [Compound 40]
 |  | ≥ 100 nM | < 10 nM | CCCNc1nc([C@@H](C)O)cc2cnc(Nc3ccc(CN4CCCC(O)C4)cn3)nc12 (stereo partly drawn) [Compound 1081]
10 to 100 nM | < 10 nM |  |  | CC(C)Nc1nc(C(F)F)cc2cnc(Nc3ccc(CN4CCNC5(CC5)C4)cn3)nc12 [Compound 175]
 |  | ≥ 100 nM | < 10 nM | CO[C@H](C)c1cc2cnc(Nc3ccc(CN4CCNCC4)cn3)nc2c(NCCCF)n1 [Compound 1227]
 |  | ≥ 100 nM | < 10 nM | O=C(CO)N1CCc2nc(Nc3ncc4cc(C5CCOC5)nc(N[C@H]5CCCOC5)c4n3)ccc2C1 (stereo partly drawn) [Compound 1114]
≥ 100 nM | 10 to 100 nM |  |  | CO[C@H](C)c1cc2cnc(Nc3ccc(N4CCC(O)C4)nn3)nc2c(NC(C)C)n1 (stereo partly drawn) [Compound 334]
≥ 100 nM | < 10 nM |  |  | COCCNc1nc(C(F)F)cc2cnc(Nc3ccc(N4CCNCC4)cn3)nc12 [Compound 15]

IC50 [1, 3] | IC50 [2, 4] | IC50 [1, 5] | IC50 [2, 6] | SMILES
≥ 100 nM | < 10 nM |  |  | COCC(C)(C)Nc1nc([C@@H](C)O)cc2cnc(Nc3ccc(CN4CCC(OC)CC4)cn3)nc12 [Compound 294]
≥ 100 nM | < 10 nM |  |  | CC(C)Nc1nc([C@@H](C)O)cc2cnc(Nc3ccc(CN4CCN(CCO)CC4)cn3)nc12 [Compound 555]
 |  | ≥ 100 nM | < 10 nM | C[C@@H](O)c1cc2cnc(Nc3ccc(CN4CCC(O)CC4)cn3)nc2c(NCC2CCOCC2)n1 [Compound 1065]
 |  | ≥ 100 nM | < 10 nM | C[C@@H](O)c1cc2cnc(Nc3ccc(N4CCNCC4=O)cn3)nc2c(NC2CCOC(C)(C)C2)n1 (stereo partly drawn) [Compound 692]
 |  | ≥ 100 nM | < 10 nM | C[C@@H](O)c1cc2cnc(Nc3ccc(CN4CCN(CCO)CC4)cn3)nc2c(NC23CC(C2)C3)n1 [Compound 1205]
≥ 100 nM | < 10 nM |  |  | COCC(C)(C)Nc1nc([C@@H](C)O)cc2cnc(Nc3ccc(C4CCNCC4)cn3)nc12 [Compound 215]
 |  | ≥ 100 nM | 10 to 100 nM | CC(C)Nc1nc([C@@H](C)O)cc2cnc(Nc3ccc(N4CCC(CC(=O)O)CC4)nn3)nc12 [Compound 797]
≥ 100 nM | < 10 nM |  |  | COC(C)c1cc2cnc(Nc3ccc(CN4CCNCC4)cn3)nc2c(NC2CCC(C)(C)OC2)n1 (stereo not drawn) [Compound 432]
≥ 100 nM | < 10 nM |  |  | C[C@@H](O)c1nc(NC2CCOCC2)c2nc(Nc3ccc(CN4CCNCC4)cn3)ncc2c1Cl [Compound 326]
≥ 100 nM | < 10 nM |  |  | CC(C)Nc1nc([C@@H](C)O)c(Cl)c2cnc(Nc3ccc(CN4CCNCC4)cn3)nc12 [Compound 238]
≥ 100 nM | < 10 nM |  |  | CO[C@H](C)c1cc2cnc(Nc3ccc(CN4CC[C@@H](O)C4)cn3)nc2c(NC(C)C)n1 [Compound 270]
 |  | ≥ 100 nM | < 10 nM | OCCN1CCc2nc(Nc3ncc4cc(C5CCOC5)nc(N[C@H]5CCCOC5)c4n3)ccc2C1 (stereo partly drawn) [Compound 1122]
 |  | ≥ 100 nM | < 10 nM | CC(C)Nc1nc([C@@H](C)O)cc2cnc(Nc3ccc(O[C@H]4CC[C@H](N(C)C)CC4)cn3)nc12 [Compound 740]
 |  | ≥ 100 nM | < 10 nM | CC(C)Nc1nc([C@@H](C)O)cc2cnc(Nc3ccc(N4CCCC(N(C)C)C4)nn3)nc12 (stereo partly drawn) [Compound 1220]
 |  | ≥ 100 nM | < 10 nM | CC(C)Nc1nc([C@@H](C)O)cc2cnc(Nc3ccc(O[C@@H]4CCC[C@H]4N)cn3)nc12 [Compound 772]
 |  | ≥ 100 nM | 10 to 100 nM | CCCNc1nc([C@@H](C)O)cc2cnc(Nc3ccc(N4CCC(O)CC4)nn3)nc12 [Compound 1000]
≥ 100 nM | < 10 nM |  |  | CO[C@H](C)c1cc2cnc(Nc3ccc(N4CCNC[C@@H]4C)nn3)nc2c(NC(C)C)n1 [Compound 371]
 |  | ≥ 100 nM | < 10 nM | CO[C@H](C)c1cc2cnc(Nc3ccc(CN4CCNCC4)cn3)nc2c(NC(C)C2CCOCC2)n1 (stereo partly drawn) [Compound 928]
 |  | ≥ 100 nM | 10 to 100 nM | CC(C)Nc1nc(C2CCCOC2)cc2cnc(Nc3ccc(N4CCNCC4=O)cn3)nc12 (stereo not drawn) [Compound 807]
